Where two headings read alike, the source gives them in different places. A value given as a limit tells only on which side of the number the result lay.

For experiment [1], the system named is L929 cells. Put plainly: TNF-induced programmed cell necrosis inhibition, Cell Titer-Glo viability. The format is cell-based, mouse. The following applies: Mus musculus, read-out: EC50 inhibitory activity on programmed cell necrosis. The source says:
(§1) The adopted biological assay protocol was: the programmed necroptosis effect of compounds on TNF-induced in FADD (Fas-Associated Death Domain) deficient Jurkat cells and L929 cells.
(§2) In order to verify the inhibitory effect of the compounds of the present invention on programmed cell necrosis at the cellular level, cell types closely related to the RIP1 pathway, namely FADD deficient Jurkat cells (human peripheral blood leukemia T cell line) and L929 cells, were selected. Two different stimulation methods were used: tumor necrosis factor (TNFα) used alone, or TNFα used in combination with mitochondria-derived cysteine aspartate activator (SMAC). Cells viability was calculated by detecting chemiluminescence values, and the biological activity of the compound for inhibiting programmed cell necrosis can be obtained.
(§3) Methods: FADD deficient Jurkat cells: FADD deficient Jurkat cells (human peripheral blood leukemia T cell line) were cultured in vitro. After growing to the logarithmic growth phase, the cells were collected, centrifuged at 1000 rpm for 5 min, the supernatant was discarded, and the cell concentration was adjusted to 2.5×10^5/mL. Cells were seeded into 384-well plates, 40 μl per well. 5 μL of Smac (50 nM) diluted in cell culture medium and 5 μL of each compound were added to the corresponding wells. After pretreatment at 37° C. for 1 h, 5 μL of TNFα (50 ng/mL) diluted in cell culture medium was added to each well of the stimulation group, and 5 μL of the culture medium was added to the control group. The plate was cultured in a cell incubator (37° C., 5% CO2) for 14 h, and 15 μl of Cell Titer-Glo solution was added to each well, then incubated for 30 min at room temperature, and intracellular ATP level was measured by detecting luminescence. The unstimulated DMSO control wells were taken as 100% cell viability. L929 cells: The L929 cells (mouse fibroblasts) were cultured in vitro, digested and diluted to 6.25×10^4/ml, and the cells were seeded into 384-well plates, 40 μl per well. The plate was placed in a cell incubator (37° C., 5% CO2) for 12 hours. 5 μL of Smac (500 nM) diluted in cell culture medium and 5 μL of each compound were added to the corresponding wells. After pretreatment at 37° C. for 1 h, 5 μL of TNFα (500 ng/mL) diluted in cell culture medium was added to each well of the stimulation group, and 5 μL of the culture medium was added to the control group. After the plate was cultured for 14 h in a cell incubator (37° C., 5% CO2), 15 μl of Cell Titer-Glo solution was added to each well. The plate was incubated at room temperature for 30 min, and intracellular ATP level was measured by detecting luminescence. The unstimulated DMSO control wells were taken as 100% cell viability. EC50 values of the compounds were calculated using Prism Graphpad statistical software.
L929 cells: The L929 cells (mouse fibroblasts) were cultured in vitro, digested and diluted to 6.25×10^4/ml, and the cells were seeded into 384-well plates, 40 μl per well. The plate was placed in a cell incubator (37° C., 5% CO2) for 12 hours. 5 μL of Smac (500 nM) diluted in cell culture medium and 5 μL of each compound were added to the corresponding wells. After pretreatment at 37° C. for 1 h, 5 μL of TNFα (500 ng/mL) diluted in cell culture medium was added to each well of the stimulation group, and 5 μL of the culture medium was added to the control group. After the plate was cultured for 14 h in a cell incubator (37° C., 5% CO2), and 15 μl of Cell Titer-Glo solution was added to each well, then incubated at room temperature for 30 min, and intracellular ATP level was measured by detecting luminescence. The unstimulated DMSO control wells were taken as 100% cell viability.

Experiment [2] relates to FADD−/− Jurkat cells. The description is as above. The format is cell-based. The following applies: Homo sapiens, Jurkat.
From the text: as §1, §2, §3
FADD deficient Jurkat cells: FADD deficient Jurkat cells (human peripheral blood leukemia T cell line) were cultured in vitro. After growing to the logarithmic growth phase, the cells were collected, centrifuged at 1000 rpm for 5 min, the supernatant was discarded, and the cell concentration was adjusted to 2.5×10^5/mL. Cells were seeded into 384-well plates, 40 μl per well. 5 μL of Smac (50 nM) diluted in cell culture medium and 5 μL of each compound were added to the corresponding wells. After pretreatment at 37° C. for 1 h, 5 μL of TNFα (50 ng/mL) diluted in cell culture medium was added to each well of the stimulation group, and 5 μL of the culture medium was added to the control group. After the plate was cultured in a cell incubator (37° C., 5% CO2) for 14 h, 15 μl of Cell Titer-Glo solution was added to each well. The mixture was incubated for 30 min at room temperature, and intracellular ATP level was measured by detecting luminescence. The unstimulated DMSO control wells were taken as 100% cell viability.

The mark [3] stands for this setting: L929, 14 h, L929 cells (mouse), TNFa + SM164.
Where [4] appears, read: 14 h, TNFa + SM164, read-out: EC50 inhibitory activity on programmed cell necrosis.
Setting [5] is: TNFa, read-out: EC50 inhibitory activity on programmed cell necrosis.

For `Cc1noc([C@@H]2CCCN2C(=O)C(C)(C)Oc2ccc(I)cc2)n1` [QY-2-75], the EC50 in experiment [1] (setting [3]) was above 10 µM; in experiment [1] (L929, L929 cells (mouse), TNFa), 2.45 µM; in experiment [2] (setting [4]), 5.15 µM; in experiment [2] (setting [5]) it was 0.608 µM.

Regarding `Cc1noc([C@@H]2CCCN2C(=O)C(C)(C)Oc2ccc(OC(F)(F)F)cc2)n1` [QY-2-76], the 50% effective concentration (EC50) in experiment [1] (setting [3]) was above 10 µM; in experiment [1] (L929, L929 cells (mouse), TNFa), above 10 µM; in experiment [2] (setting [4]), 3.96 µM; in experiment [2] (setting [5]), above 10 µM.

As to `Cc1ccc(OC(C)(C)C(=O)N2CCC[C@H]2c2nc(C)no2)cc1` [QY-2-77], the EC50 in experiment [1] (setting [3]) is above 10 µM; in experiment [1] (L929, L929 cells (mouse), TNFa), 4.26 µM; in experiment [2] (setting [4]), above 10 µM; in experiment [2] (setting [5]) it was 7.9 µM.

Regarding `Cc1noc([C@@H]2CCCN2C(=O)C(C)(C)Oc2ccc(Oc3ccccc3)cc2)n1` [QY-2-78], the EC50 in experiment [1] (setting [3]) was above 10 µM; in experiment [1] (L929, L929 cells (mouse), TNFa), above 10 µM; in experiment [2] (setting [4]), above 10 µM; in experiment [2] (setting [5]), 0.127 µM.

Regarding `Cc1noc([C@@H]2CCCN2C(=O)C(C)(C)Oc2cccc(Cl)c2)n1` [QY-2-79], the EC50 in experiment [1] (setting [3]) was 1.62 µM; in experiment [1] (L929, L929 cells (mouse), TNFa), 0.212 µM; in experiment [2] (setting [4]), 8.93 µM; in experiment [2] (setting [5]), 2.03 µM.

In the case of `CC(C)(Oc1ccc(Cl)cc1)C(=O)N1CCC[C@H]1c1nc(C2CC2)no1` [QY-2-100], the concentration for a half-maximal effect (EC50) in experiment [1] (setting [3]) was above 10 µM; in experiment [1] (L929, L929 cells (mouse), TNFa), 2.48 µM; in experiment [2] (setting [4]) it was above 10 µM; in experiment [2] (setting [5]), 2.24 µM.

On to `CCCCc1noc([C@@H]2CCCN2C(=O)C(C)(C)Oc2ccc(Cl)cc2)n1` [QY-2-103], for which the EC50 in experiment [1] (setting [3]) was above 10 µM; in experiment [1] (L929, L929 cells (mouse), TNFa) it was above 10 µM; in experiment [2] (setting [4]), above 10 µM; in experiment [2] (setting [5]) it was above 10 µM.

Turning to `CC(C)(Oc1ccc(Cl)cc1)C(=O)N1CCC[C@H]1c1nc(Cc2ccccc2)no1` [QY-2-104], the 50% effective concentration (EC50) in experiment [1] (setting [3]) was above 10 µM; in experiment [1] (L929, L929 cells (mouse), TNFa), above 10 µM; in experiment [2] (setting [4]) it was above 10 µM; in experiment [2] (setting [5]), above 10 µM.

Take `Cc1noc([C@@H]2CCCN2C(=O)COc2ccc(Cl)cc2)n1` [QY-3-4]: the EC50 was 59.1 µM in experiment [1] (setting [3]); above 10 µM in experiment [1] (L929, L929 cells (mouse), TNFa); above 10 µM in experiment [2] (setting [4]); above 10 µM in experiment [2] (setting [5]).

As to `Cc1conc1[C@@H]1CCCN1C(=O)C(C)(C)Oc1ccc(Cl)cc1` [QY-3-11], the EC50 in experiment [1] (setting [3]) turned out to be 1.57 µM; in experiment [1] (L929, L929 cells (mouse), TNFa), 0.404 µM; in experiment [2] (setting [4]), 3.27 µM; in experiment [2] (setting [5]), 0.389 µM.

Turning to `CC(C)c1noc([C@@H]2CCCN2C(=O)C(C)(C)Oc2ccc(Cl)cc2)n1` [QY-3-17], the EC50 in experiment [1] (setting [3]) was 52.4 µM; in experiment [1] (L929, L929 cells (mouse), TNFa), 5.38 µM; in experiment [2] (setting [4]), above 10 µM; in experiment [2] (setting [5]) it was 3.91 µM.

As for `Cc1noc([C@@H]2CCCN2C(=O)C(C)(C)Oc2ccc(Cl)c(F)c2)n1` [QY-3-26], the half-maximal effective concentration (EC50) is 1.24 µM in experiment [1] (setting [3]); 0.196 µM in experiment [1] (L929, L929 cells (mouse), TNFa); 1.28 µM in experiment [2] (setting [4]); 0.111 µM in experiment [2] (setting [5]).

On to `Cc1noc([C@@H]2CCCN2C(=O)C(C)(C)Oc2ccc(Cl)cc2F)n1` [QY-3-27, (S)-2-(4-Chloro-2-fluorophenoxy)-2-methyl-1-(2-(3-methyl-1,2,4-oxadiazol-5-yl)pyrrolidin-1-yl)propan-1-one], for which the EC50 in experiment [1] (setting [3]) was found to be 0.792 µM; in experiment [1] (L929, L929 cells (mouse), TNFa) it was 0.133 µM; in experiment [2] (setting [4]) it was 0.849 µM; in experiment [2] (setting [5]), 0.056 µM.

The term EC50 denotes the concentration at which the effect is half-maximal.

Values taken from patent US12662473B2, “Inhibitors for programmed cell necrosis and preparation method therefor and use thereof” (SHANGHAI INSTITUTE OF ORGANIC CHEMISTRY, CHINESE ACADEMY OF …, priority 2019, dated 2026).
